Measurements published in BindingDB's records for doi:10.1016/j.bmcl.2006.05.053 (Institute For Molecular Studies, 2006).

Molecular target: Mu-type opioid receptor (Rattus norvegicus, UniProt P33535)
Test: Displacement of [3H]DAMGO from mu opioid receptor in rat brain homogenate

Chain of Mu-type opioid receptor (P33535 whole entry): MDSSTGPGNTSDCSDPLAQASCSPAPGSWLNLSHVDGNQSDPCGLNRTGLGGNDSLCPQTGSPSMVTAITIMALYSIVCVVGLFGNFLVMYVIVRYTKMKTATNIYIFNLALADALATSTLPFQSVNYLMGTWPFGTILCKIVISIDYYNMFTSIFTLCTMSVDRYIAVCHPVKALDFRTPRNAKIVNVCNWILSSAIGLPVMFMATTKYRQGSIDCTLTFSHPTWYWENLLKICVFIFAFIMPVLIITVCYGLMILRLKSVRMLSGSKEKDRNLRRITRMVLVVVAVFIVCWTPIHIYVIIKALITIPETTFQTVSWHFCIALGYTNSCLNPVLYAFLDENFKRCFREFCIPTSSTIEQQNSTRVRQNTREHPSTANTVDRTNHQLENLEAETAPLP

## CN[C@@H](Cc1ccc(O)cc1)CN(C)[C@H](CNCc1ccccc1)Cc1ccc(O)cc1 [4-[(2S)-3-{[(2S)-1-(benzylamino)-3-(4-hydroxyphenyl)propan-2-yl](methyl)amino}-2-(methylamino)propyl]phenol]
  IC50: 2 nM
